Results reported in patent US12370161B2, “Composition for treating atopy or pruritus comprising N-acetyl or N-acyl amino acid” (STEMDR INC., priority 2017, dated 2025).
“Also recorded” adds a separate entry of the source.

Columns and labels:
IL4 = IL4 mRNA in skin tissue by quantitative real-time PCR, Balb/c; type: in vivo, mouse; conditions: atopy-induced Balb/c mice, normalized to β-actin
Procedure: (§1) After isolating total RNA from the atopy-induced skin tissue using 500 μL of Trizol (Life Technologies, USA) according to the manufacturer's protocol and synthesizing cDNA using the Superscript III reverse transcriptase (Life Technologies, USA), real-time PCR was conducted by reacting with the primers of IL4 and interferon γ to be analyzed. The real-time PCR was conducted on a StepOne Plus PCR cycler (Applied Biosystems) using SYBR Green (Applied Biosystems, Foster City, CA). The mRNA expression data were analyzed by the ΔΔCT method and were normalized to β-actin for gene detection. The primers necessary for the real-time PCR were purchased from Qiagen (USA). […] IL4 is known to induce TH2 response and interferon γ is known to induce TH1 response.

interferon γ = assay: Interferon γ mRNA in skin tissue by quantitative real-time PCR, Balb/c; type: in vivo, mouse; conditions: atopy-induced Balb/c mice, normalized to β-actin
Procedure: as §1

IgE = assay: Serum IgE level by ELISA, Balb/c; type: in vivo, mouse; conditions: atopy-induced Balb/c mice
Procedure: After treatment with the test substance, the mice were sacrificed and blood was taken from the heart. After isolating serum from the blood, IgE level was measured. Specifically, after attaching antibodies diluted in a buffer solution onto a 96-well plate and incubating overnight at 4° C., experiment was conducted using an IgE ELISA kit (BD Biosciences, San Diego, CA) according to the provided manual. The quantity of the IgE protein was determined by measuring absorbance at 450 nm using a microplate reader.

[1] = test system: atopic dermatitis-induced Balb/c mouse; assay: SCORAD clinical skin score, DNFB-induced atopic dermatitis in Balb/c mouse; type: in vivo; design: key to Mouse 1 Sum / Mean (of Sum, SCORAD) / Mouse 2 Sum / Mouse 3 Sum: sum of symptom grades, each 0 (none) to 3 (severe); conditions: for skin-soothing and atopic dermatitis-treating effect (SCORAD, Table 1, FIG. 2A): Balb/c atopic dermatitis model, 0.1% topical, P<0.05 versus DNFB group; for apparent degree of dermatitis (back skin images, FIG. 2B): Balb/c, treated for 7 days, day 29; for Mouse 1 Erythema / Mouse 1 Abrasion / Mouse 1 Dryness / Mouse 1 Edema / Mouse 1 Eschar / Mouse 1 Lichenification / Mouse 1 Sum / Mouse 2 Abrasion / Mouse 2 Dryness / Mouse 2 Edema / Mouse 2 Erythema / Mouse 2 Eschar / Mouse 2 Lichenification / Mouse 2 Sum / Mouse 3 Abrasion / Mouse 3 Dryness / Mouse 3 Edema / Mouse 3 Erythema / Mouse 3 Eschar / Mouse 3 Lichenification / Mouse 3 Sum / Mean (of Sum, SCORAD): DNFB Balb/c; for Mouse 1 Erythema: 0.1% in PBS, 200 μL on back skin daily day 22-28, grade 0-3 (0 no symptom, 1 mild, 2 moderate, 3 severe); for Mouse 1 Abrasion / Mouse 1 Dryness / Mouse 1 Edema / Mouse 1 Eschar / Mouse 1 Lichenification / Mouse 1 Sum / Mouse 2 Abrasion / Mouse 2 Dryness / Mouse 2 Edema / Mouse 2 Erythema / Mouse 2 Eschar / Mouse 2 Lichenification / Mouse 2 Sum / Mouse 3 Abrasion / Mouse 3 Dryness / Mouse 3 Edema / Mouse 3 Erythema / Mouse 3 Eschar / Mouse 3 Lichenification / Mouse 3 Sum / Mean (of Sum, SCORAD): 0.1% topical day 22-28; for Mouse 1 Abrasion / Mouse 1 Dryness / Mouse 1 Edema / Mouse 1 Eschar / Mouse 1 Lichenification / Mouse 2 Abrasion / Mouse 2 Dryness / Mouse 2 Edema / Mouse 2 Erythema / Mouse 2 Eschar / Mouse 2 Lichenification / Mouse 3 Abrasion / Mouse 3 Dryness / Mouse 3 Edema / Mouse 3 Erythema / Mouse 3 Eschar / Mouse 3 Lichenification: grade 0-3; for Mouse 1 Sum / Mouse 2 Sum / Mouse 3 Sum: overall dermatitis score, sum of individual scores; for Mean (of Sum, SCORAD): mean of 3 mice
Procedure: In order to induce atopy-like dermatitis in Balb/c mice, DNFB sensitization was induced by applying 100 μL of 0.35% 2,4-dinitrofluorobenzene (DNFB) (Sigma, USA) in acetone/olive oil (3:1) on the shaved back skin of the mice. Then, dermatitis was induced by applying 100 μL of 0.25% DNFB on days 6, 9, 12, 15, 18 21, 24 and 27 on the shaved back skin. Control mice were treated with a vehicle of the same volume (FIG. 1A).
(§2) After dissolving an N-acetyl or N-acylamino acid in phosphate-buffered saline to 0.1%, 200 μL of the solution was applied on the back skin of the mice every day, from day 22 until day 28 for the Balb/c atopic dermatitis model, and from day 15 until day 21 for the Nc/Nga atopic dermatitis model. When the N-acetyl or N-acylamino acid was treated together with DNFB, they were treated with 12-hour intervals in order to avoid direct reaction between the DNFB and the N-acetyl or N-acylamino acid. A non-treated group and a 2,4-dinitrofluorobenzene (DNFB) group were treated with phosphate-buffered saline of the same volume (FIGS. 1A-1B). As the N-acetylamino acid, products purchased from Sigma-Aldrich (USA), MP scientific (USA), TCI (Tokyo Chemical Industry, Japan), Santacruz (USA), etc. were used without purification.
(§3) The degree of skin soothing and the severity of atopic dermatitis were evaluated macroscopically according to the previously established SCORAD (SCORing Atopic Dermatitis) method (Oranje et al., 2007). The degree of symptoms such as edema, erythema, eschar, dryness, abrasion, lichenification, etc. was graded from 0 to 3 (0, no symptom; 1, mild; 2, moderate; 3, severe). The overall dermatitis score was determined from the sum of all individual scores (Table 1). The assessment was performed by an investigator who was blind to the grouping of the mice.

[2] = test system: pruritus caused by atopic contact dermatitis; assay: Pruritus inhibition test, pruritus induced with DNFB; type: in vivo, mouse; conditions: 0.1% in physiological saline applied once onto right ear; pruritus measured for 1 hour
Procedure: In order to investigate whether L-form, LID-form and D-form N-acetylalanine, N-acetylarginine, N-acetylthreonine and N-acetyltryptophan inhibit pruritus caused by atopic contact dermatitis, 20 μL of 0.1% 2,4-dinitrofluorobenzene (DNFB) solution and 0.1% N-acetylamino acid dissolved in physiological saline were applied once onto the right ear 10 minutes after the final treatment (day 27) with 2,4-dinitrofluorobenzene (DNFB) (Physiological saline was applied to a negative control group), and then pruritus was measured for 1 hour. FIG. 7 compares the pruritus-relieving effect of L-form N-acetylalanine, N-acetylthreonine, N-acetylarginine and N-acetyltryptophan with D/L-form and D-form N-acetylalanine and N-acetyltryptophan at 0.1% after the induction of pruritus with DNFB.

[3] = test system: atopic dermatitis-induced Nc/Nga mouse; assay: SCORAD clinical skin score, DNFB-induced atopic dermatitis in Nc/Nga mouse; type: in vivo; conditions: Nc/Nga atopic dermatitis model, 0.1%
Procedure: In order to establish a model more similar to an atopy model than that of the Balb/c mice, atopy was induced in Nc/Nga mouse mice. Specifically, after inducing DNFB sensitization by applying 100 μL of 0.35% 2,4-dinitrofluorobenzene (DNFB) in acetone/olive oil (3:1) on the shaved back skin, dermatitis was induced by applying 100 μL of 0.15% DNFB for 4-20 days, every other day. Control mice were treated with a vehicle of the same volume (FIG. 1B).
as §2, §3
Skin-soothing effect and the severity of dermatitis were evaluated for the acyl derivatives of tryptophan synthesized in Example 9, the acyl derivative of alanine synthesized in Example 10 and N-palmitoylalanine (purchased from Santacruz (USA)) according to the method of Example 4 (Table 2)

Row | SMILES | level of IL4 in the skin tissue (FIG. 5A) (IL4) | level of interferon γ in the skin tissue (FIG. 5A) (interferon γ) | serum IgE level (FIG. 4A) (IgE) | skin-soothing and atopic dermatitis-treating effect (SCORAD, Table 1, FIG. 2A) [1] | apparent degree of dermatitis (back skin images, FIG. 2B) [1] | Mouse 1 Erythema [1] | Mouse 1 Abrasion [1] | Mouse 1 Dryness [1] | Mouse 1 Edema [1] | Mouse 1 Eschar [1] | Mouse 1 Lichenification [1] | Mouse 1 Sum [1] | Mouse 2 Abrasion [1] | Mouse 2 Dryness [1] | Mouse 2 Edema [1] | Mouse 2 Erythema [1] | Mouse 2 Eschar [1] | Mouse 2 Lichenification [1] | Mouse 2 Sum [1] | pruritus-relieving effect (FIG. 7) [2] | further results
1 | CC(=O)N[C@@H](CS)C(=O)O [N-acetyl-L-cysteine, reference compound] | significantly decreased | significantly decreased | significant decrease | significant skin-soothing and atopic dermatitis-treating effects; also recorded: significant atopic dermatitis-treating effect | decreased remarkably | 2 | 2 | 2 | 2 | 2 | 3 | 13 | 2 | 3 | 1 | 2 | 2 | 3 | 13 |  | Mouse 3 Abrasion [1]: 2; Mouse 3 Dryness [1]: 2; Mouse 3 Edema [1]: 2; Mouse 3 Erythema [1]: 1; Mouse 3 Eschar [1]: 2; Mouse 3 Lichenification [1]: 2; Mouse 3 Sum [1]: 11; Mean (of Sum, SCORAD) [1]: 12.33
2 | CC(=O)N[C@@H](C)C(=O)O [D/L-form N-acetylalanine, N-acetylalanine, reference compound] |  |  |  |  |  |  |  |  |  |  |  |  |  |  |  |  |  |  |  | little effect | dermatitis-treating effect of L-, L/D- and D-form (FIG. 6) ([3]; listed as LID-form N-acetylalanine): no effect
3 | CC(=O)N[C@@H](Cc1c[nH]c2ccccc12)C(=O)O [D/L-form N-acetyltryptophan, N-acetyltryptophan, reference compound] |  |  |  |  |  |  |  |  |  |  |  |  |  |  |  |  |  |  |  | little effect | dermatitis-treating effect of L-, L/D- and D-form (FIG. 6) ([3]; listed as LID-form N-acetyltryptophan): no effect
4 | CC(=O)N[C@H](C(=O)O)[C@@H](C)O [N-acetyl-L-threonine] | significantly decreased | significantly decreased | significant decrease | significant skin-soothing and atopic dermatitis-treating effects; also recorded: significant atopic dermatitis-treating effect | decreased remarkably | 1 | 1 | 2 | 1 | 1 | 1 | 7 | 1 | 0 | 1 | 1 | 1 | 1 | 5 | significantly inhibited pruritus | Mouse 3 Abrasion [1]: 0; Mouse 3 Dryness [1]: 1; Mouse 3 Edema [1]: 1; Mouse 3 Erythema [1]: 1; Mouse 3 Eschar [1]: 2; Mouse 3 Lichenification [1]: 1; Mouse 3 Sum [1]: 6; Mean (of Sum, SCORAD) [1]: 6
5 | CC(=O)N[C@@H](CCCNC(=N)N)C(=O)O [N-acetyl-L-arginine] | significantly decreased | significantly decreased | significant decrease | significant skin-soothing and atopic dermatitis-treating effects; also recorded: significant atopic dermatitis-treating effect | decreased remarkably | 1 | 1 | 1 | 1 | 1 | 1 | 6 | 1 | 1 | 1 | 1 | 1 | 1 | 6 | significantly inhibited pruritus | Mouse 3 Abrasion [1]: 0; Mouse 3 Dryness [1]: 1; Mouse 3 Edema [1]: 1; Mouse 3 Erythema [1]: 1; Mouse 3 Eschar [1]: 1; Mouse 3 Lichenification [1]: 1; Mouse 3 Sum [1]: 5; Mean (of Sum, SCORAD) [1]: 5.67
